How the values were obtained:
human TLR7 = human TLR7 (Homo sapiens (Human), UniProt Q9NYK1); test: HEK293-Blue-hTLR-7 cells assay; format: cell-based; details: HEK293-Blue-hTLR7 cells, R848 stimulation, 20 hrs, SEAP reporter; read-out: HEK/hTLR7 IC50
Excerpt: (§1) A stable HEK293-Blue-hTLR-7 cell line was purchased from InvivoGen (Cat. #: hkb-htlr7, San Diego, Calif., USA). These cells were originally designed for studying the stimulation of human TLR7 by monitoring the activation of NF-κB. A SEAP (secreted embryonic alkaline phosphatase) reporter gene was placed under the control of the IFN-β minimal promoter fused to five NF-κB and AP-1-binding sites. The SEAP was induced by activating NF-κB and AP-1 via stimulating HEK-Blue hTLR7 cells with TLR7 ligands. Therefore the reporter expression was declined by TLR7 antagonist under the stimulation of a ligand, such as R848 (Resiquimod), for incubation of 20 hrs. The cell culture supernatant SEAP reporter activity was determined using QUANTI-Blue™ kit (Cat. #: rep-qb1, Invivogen, San Diego, Ca, USA) at a wavelength of 640 nm, a detection medium that turns purple or blue in the presence of alkaline phosphatase.
(§2) HEK293-Blue-hTLR7 cells were incubated at a density of 250,000˜450,000 cells/mL in a volume of 170 μL in a 96-well plate in Dulbecco's Modified Eagle's medium (DMEM) containing 4.5 g/L glucose, 50 U/mL penicillin, […], […], 2 mM L-glutamine, 10% (v/v) heat-inactivated fetal bovine serum with addition of 20 μL test compound in a serial dilution in the presence of final DMSO at 1% and 10 μL of 20 uM R848 in above DMEM, perform incubation under 37° C. in a CO2 incubator for 20 hrs. Then 20 μL of the supernatant from each well was incubated with 180 μL Quanti-blue substrate solution at 37° C. for 2 hrs and the absorbance was read at 620-655 nm using a spectrophotometer. The signaling pathway that TLR7 activation leads to downstream NF-κB activation has been widely accepted, and therefore similar reporter assay was modified for evaluating TLR7 antagonist.

human TLR8 = human TLR8 (Homo sapiens (Human), UniProt Q9NR97); test: HEK293-Blue-hTLR-8 cells assay; format: cell-based; details: HEK293-Blue-hTLR8 cells, R848 stimulation, 20 hrs, SEAP reporter; read-out: HEK/hTLR8 IC50
human TLR8, sequence (Q9NR97 27-1041): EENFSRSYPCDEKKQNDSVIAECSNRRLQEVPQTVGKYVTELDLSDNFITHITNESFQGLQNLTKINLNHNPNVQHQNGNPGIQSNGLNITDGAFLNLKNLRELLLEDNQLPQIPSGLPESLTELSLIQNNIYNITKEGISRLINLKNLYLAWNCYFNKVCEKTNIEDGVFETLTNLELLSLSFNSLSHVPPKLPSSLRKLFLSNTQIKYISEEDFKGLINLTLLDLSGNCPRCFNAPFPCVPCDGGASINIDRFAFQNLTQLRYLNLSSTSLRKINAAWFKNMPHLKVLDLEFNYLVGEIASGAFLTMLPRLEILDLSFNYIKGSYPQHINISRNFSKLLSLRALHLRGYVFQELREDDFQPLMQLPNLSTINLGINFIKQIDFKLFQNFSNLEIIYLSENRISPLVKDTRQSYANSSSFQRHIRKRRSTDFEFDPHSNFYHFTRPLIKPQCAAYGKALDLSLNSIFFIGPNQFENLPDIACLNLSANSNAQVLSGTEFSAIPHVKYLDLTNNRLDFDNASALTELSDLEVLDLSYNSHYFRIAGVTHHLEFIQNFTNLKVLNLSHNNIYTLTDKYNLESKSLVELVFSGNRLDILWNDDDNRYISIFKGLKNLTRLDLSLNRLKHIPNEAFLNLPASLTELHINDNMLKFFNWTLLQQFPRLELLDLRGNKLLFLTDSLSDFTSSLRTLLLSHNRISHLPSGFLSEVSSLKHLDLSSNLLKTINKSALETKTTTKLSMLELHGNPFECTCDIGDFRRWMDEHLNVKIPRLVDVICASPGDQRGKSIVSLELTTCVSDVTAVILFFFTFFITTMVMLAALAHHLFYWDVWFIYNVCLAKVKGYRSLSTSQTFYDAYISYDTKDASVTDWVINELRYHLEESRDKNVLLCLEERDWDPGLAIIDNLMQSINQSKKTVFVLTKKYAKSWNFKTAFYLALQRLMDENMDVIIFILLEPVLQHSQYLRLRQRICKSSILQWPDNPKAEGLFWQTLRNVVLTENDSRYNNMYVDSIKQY
Excerpt: as §1, with “HEK293-Blue-hTLR-8” for “HEK293-Blue-hTLR-7”, “hkb-htlr8,” for “hkb-htlr7,”, “TLR8” for “TLR7”, “hTLR8” for “hTLR7”, “R848,” for “R848 (Resiquimod),”, “rep-gb1,” for “rep-qb1,”
as §2, with “HEK293-Blue-hTLR8 cells were” for “HEK293-Blue-hTLR7 cells were”, “μL of 60 uM R848” for “μL of 20 uM R848”, “read at 620655 nm using” for “read at 620-655 nm using”, “pathway that TLR8 activation leads” for “pathway that TLR7 activation leads”, “for evaluating TLR8 antagonist.” for “for evaluating TLR7 antagonist.”

TLR9 = TLR9 (Homo sapiens (Human), UniProt Q9NR96); test: HEK293-Blue-hTLR-9 cells assay; format: cell-based; details: HEK293-Blue-hTLR9 cells, ODN2006 stimulation, 20 hrs, SEAP reporter; read-out: HEK/hTLR9 IC50
TLR9, sequence (Q9NR96 26-1032): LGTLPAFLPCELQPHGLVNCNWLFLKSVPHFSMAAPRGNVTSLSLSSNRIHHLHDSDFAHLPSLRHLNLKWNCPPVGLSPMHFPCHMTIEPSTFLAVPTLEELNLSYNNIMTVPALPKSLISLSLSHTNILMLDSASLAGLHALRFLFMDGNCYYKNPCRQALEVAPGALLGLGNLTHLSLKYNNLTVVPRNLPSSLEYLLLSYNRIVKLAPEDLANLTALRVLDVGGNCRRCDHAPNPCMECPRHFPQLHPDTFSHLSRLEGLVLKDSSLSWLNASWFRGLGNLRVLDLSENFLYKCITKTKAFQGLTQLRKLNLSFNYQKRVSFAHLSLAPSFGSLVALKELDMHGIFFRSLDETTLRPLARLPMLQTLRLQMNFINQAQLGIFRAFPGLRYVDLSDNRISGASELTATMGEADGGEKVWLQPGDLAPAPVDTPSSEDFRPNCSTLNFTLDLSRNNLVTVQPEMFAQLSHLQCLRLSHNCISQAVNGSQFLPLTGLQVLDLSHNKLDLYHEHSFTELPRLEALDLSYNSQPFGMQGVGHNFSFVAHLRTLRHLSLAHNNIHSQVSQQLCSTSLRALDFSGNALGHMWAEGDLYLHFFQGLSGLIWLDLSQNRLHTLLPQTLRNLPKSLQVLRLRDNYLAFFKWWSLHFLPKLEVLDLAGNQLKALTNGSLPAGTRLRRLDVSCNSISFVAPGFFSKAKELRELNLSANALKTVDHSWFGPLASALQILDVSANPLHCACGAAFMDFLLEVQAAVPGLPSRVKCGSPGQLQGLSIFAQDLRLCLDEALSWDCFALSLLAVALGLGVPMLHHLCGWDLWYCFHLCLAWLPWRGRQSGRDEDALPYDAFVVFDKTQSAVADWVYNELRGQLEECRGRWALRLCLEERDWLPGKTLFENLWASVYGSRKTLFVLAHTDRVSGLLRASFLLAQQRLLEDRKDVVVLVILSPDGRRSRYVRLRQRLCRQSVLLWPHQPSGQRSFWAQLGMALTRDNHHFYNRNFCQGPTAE
Excerpt: as §1, with “HEK293-Blue-hTLR-9” for “HEK293-Blue-hTLR-7”, “hkb-htlr9,” for “hkb-htlr7,”, “TLR9” for “TLR7”, “hTLR9” for “hTLR7”, “ODN2006 (Cat. #: tlr1-2006-1, Invivogen, San Diego, Calif., USA),” for “R848 (Resiquimod),”, “Calif.,” for “Ca,”
HEK293-Blue-hTLR9 cells were incubated at a density of 250,000˜450,000 cells/mL in a volume of 170 μL in a 96-well plate in Dulbecco's Modified Eagle's medium (DMEM) containing 4.5 g/L glucose, 50 U/mL penicillin, […], 2 mM L-glutamine, 10% (v/v) heat-inactivated fetal bovine serum with addition of 20 μL test compound in a serial dilution in the presence of final DMSO at 1% and 10 μL, of 20 uM ODN2006 in above DMEM, perform incubation under 37° C. in a CO2 incubator for 20 hrs. Then 20 μL of the supernatant from each well was incubated with 180 μL, Quanti-blue substrate solution at 37° C. for 2 h and the absorbance was read at 620655 nm using a spectrophotometer. The signaling pathway that TLR9 activation leads to downstream NF-κB activation has been widely accepted, and therefore similar reporter assay was modified for evaluating TLR9 antagonist.

[1] = Human microsome stability assay; format: in vitro ADME; details: human liver microsomes, 1 μM test compound, 37° C., NADPH regenerating system
Method: The human microsomal stability assay is used for early assessment of metabolic stability of a test compound in human liver microsomes.
Human liver microsomes (Cat. NO.: 452117, Corning, USA; Cat. NO.: H2610, Xenotech, USA) were preincubated with test compound for 10 minutes at 37° C. in 100 mM potassium phosphate buffer, pH 7.4. The reactions were initiated by adding NADPH regenerating system. The final incubation mixtures contained 1 μM test compound, 0.5 mg/mL liver microsomal protein, 1 mM MgCl2, 1 mM NADP, 1 unit/mL isocitric dehydrogenase and 6 mM isocitric acid in 100 mM potassium phosphate buffer, pH 7.4. After incubation times of 0, 3, 6, 9, 15 and 30 minutes at 37° C., 300 μL of cold acetonitrile (including internal standard) was added to 100 μL incubation mixture to terminate the reaction. Following precipitation and centrifugation, the amount of compound remaining in the samples were determined by LC-MS/MS. Controls of no NADPH regenerating system at zero and 30 minutes were also prepared and analyzed.

human TLR7, sequence (Q9NYK1 27-1049): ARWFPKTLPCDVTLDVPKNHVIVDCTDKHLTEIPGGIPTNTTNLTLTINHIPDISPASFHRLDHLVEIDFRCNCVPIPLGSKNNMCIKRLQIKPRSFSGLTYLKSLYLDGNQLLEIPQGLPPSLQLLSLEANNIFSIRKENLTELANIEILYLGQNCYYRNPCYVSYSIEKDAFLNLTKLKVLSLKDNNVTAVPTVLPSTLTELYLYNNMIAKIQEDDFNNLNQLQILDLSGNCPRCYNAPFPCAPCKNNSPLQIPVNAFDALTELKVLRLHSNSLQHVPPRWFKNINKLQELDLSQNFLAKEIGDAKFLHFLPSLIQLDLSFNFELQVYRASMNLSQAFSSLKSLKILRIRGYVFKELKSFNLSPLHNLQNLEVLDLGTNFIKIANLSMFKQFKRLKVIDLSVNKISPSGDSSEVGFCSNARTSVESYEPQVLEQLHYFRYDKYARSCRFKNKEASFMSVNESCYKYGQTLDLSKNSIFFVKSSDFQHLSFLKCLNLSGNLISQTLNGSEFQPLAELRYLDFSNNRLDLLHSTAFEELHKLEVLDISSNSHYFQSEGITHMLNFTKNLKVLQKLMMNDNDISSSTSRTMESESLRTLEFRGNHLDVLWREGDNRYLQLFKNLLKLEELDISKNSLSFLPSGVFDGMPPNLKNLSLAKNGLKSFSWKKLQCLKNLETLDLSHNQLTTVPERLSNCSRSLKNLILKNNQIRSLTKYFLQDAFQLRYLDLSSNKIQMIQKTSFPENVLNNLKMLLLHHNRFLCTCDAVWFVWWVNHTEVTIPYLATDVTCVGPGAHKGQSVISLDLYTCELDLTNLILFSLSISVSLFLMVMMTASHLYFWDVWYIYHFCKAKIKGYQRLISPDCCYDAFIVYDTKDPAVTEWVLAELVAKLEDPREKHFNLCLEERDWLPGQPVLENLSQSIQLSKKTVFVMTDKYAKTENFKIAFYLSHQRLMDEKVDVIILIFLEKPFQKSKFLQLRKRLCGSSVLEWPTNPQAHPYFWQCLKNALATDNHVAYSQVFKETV

Cc1cc(-c2ccc(N3CCC(N)CC3)nc2C(C)C)cn2ccnc12 [Example 1, 1-[6-isopropyl-5-(8-methylimidazo[1,2-a]pyridin-6-yl)-2-pyridyl]piperidin-4-amine]
IC50 (human TLR7): 1.4 nM
IC50 (human TLR8): 1.3 nM
IC50 (TLR9): 292 nM
Clearance of Human microsome [1]: 9.06 mL/min/kg

Cc1cn2cc(-c3ccc(N4CCC5(CC4)COCCN5)nc3C(C)C)cc(C)c2n1 [Example 6, 9-[5-(2,8-dimethylimidazo[1,2-a]pyridin-6-yl)-6-isopropyl-2-pyridyl]-4-oxa-1,9-diazaspiro[5.5]undecane]
IC50 (human TLR7): 13.6 nM
IC50 (human TLR8): 27 nM
IC50 (TLR9): 269 nM

COc1cc(-c2ccc(N3CCC4(CCNCC4)CC3)nc2C(F)F)cn2ccnc12 [Example 13, 3-[6-(difluoromethyl)-5-(8-methoxyimidazo[1,2-a]pyridin-6-yl)-2-pyridyl]-3,9-diazaspiro[5.5]undecane]
IC50 (human TLR7): 7.4 nM
IC50 (human TLR8): 28.4 nM
IC50 (TLR9): 293 nM
Clearance of Human microsome [1]: 9.16 mL/min/kg

CCc1nc(N2CCC(N3CC4(CNCCO4)C3)CC2)ccc1-c1cc(C)c2nc(C)cn2c1 [Example 16, 2-[1-[5-(2,8-dimethylimidazo[1,2-a]pyridin-6-yl)-6-ethyl-2-pyridyl]-4-piperidyl]-5-oxa-2,8-diazaspiro[3.5]nonane]
IC50 (human TLR7): 6.2 nM
IC50 (human TLR8): 15.7 nM
IC50 (TLR9): 111 nM
Clearance of Human microsome [1]: 9.54 mL/min/kg

CCc1nc(N2CCN(C(=O)C3CNCCO3)CC2)ccc1-c1cc(C)c2nc(C)cn2c1 (centres unmarked) [Example 18, [4-[5-(2,8-dimethylimidazo[1,2-a]pyridin-6-yl)-6-ethyl-2-pyridyl]piperazin-1-yl]-morpholin-2-yl-methanone]
IC50 (human TLR7): 22.4 nM
IC50 (human TLR8): 28.8 nM
IC50 (TLR9): 255 nM

CCc1nc(N2CCN(c3ncc4c(n3)CNCC4)CC2)ccc1-c1cc(C)c2nc(C)cn2c1 [Example 19, 2-[4-[5-(2,8-dimethylimidazo[1,2-a]pyridin-6-yl)-6-ethyl-2-pyridyl]piperazin-1-yl]-5,6,7,8-tetrahydropyrido[3,4-d]pyrimidine]
IC50 (human TLR7): 43.5 nM
IC50 (human TLR8): 1.3 nM
IC50 (TLR9): 131 nM

Cc1cc(-c2ccc(N3CCC(N4CCNCC4)CC3)nc2N(C)C)cn2ccnc12 [Example 23, N,N-dimethyl-3-(8-methylimidazo[1,2-a]pyridin-6-yl)-6-(4-piperazin-1-yl-1-piperidyl)pyridin-2-amine]
IC50 (human TLR7): 6.4 nM
IC50 (human TLR8): 8.1 nM
IC50 (TLR9): 118 nM

CO[C@@H]1CN(C2CCN(c3ccc(-c4cc(C)c5nccn5c4)c(N(C)C)n3)CC2)C[C@H]1N [Example 24, 6-[4-[(3R,4R)-3-amino-4-methoxy-pyrrolidin-1-yl]-1-piperidyl]-N,N-dimethyl-3-(8-methylimidazo[1,2-a]pyridin-6-yl)pyridin-2-amine]
IC50 (human TLR7): 20.1 nM
IC50 (human TLR8): 4 nM
IC50 (TLR9): 107 nM

CCc1nc(N2CCC(N3C[C@@H](N)[C@H](OC)C3)CC2)ncc1-c1cc(C)c2nccn2c1 [Example 26, (3R,4R)-1-[1-[4-ethyl-5-(8-methylimidazo[1,2-a]pyridin-6-yl)pyrimidin-2-yl]-4-piperidyl]-4-methoxy-pyrrolidin-3-amine]
IC50 (human TLR7): 7.4 nM
IC50 (human TLR8): 1 nM
IC50 (TLR9): 229 nM
Clearance of Human microsome [1]: 8.69 mL/min/kg

CCc1nc(N2CCC(N3CCNCC3)CC2)ncc1-c1cc(C)c2nccn2c1 [Example 27, 6-[4-ethyl-2-(4-piperazin-1-yl-1-piperidyl)pyrimidin-5-yl]-8-methyl-imidazo[1,2-a]pyridine]
IC50 (human TLR7): 3.3 nM
IC50 (human TLR8): 4.6 nM
IC50 (TLR9): 259 nM
Clearance of Human microsome [1]: 7.75 mL/min/kg

CCc1nc(N2CCC(N3CC4(CNCCO4)C3)CC2)ncc1-c1cc(C)c2nccn2c1 [Example 28, 2-[1-[4-ethyl-5-(8-methylimidazo[1,2-a]pyridin-6-yl)pyrimidin-2-yl]-4-piperidyl]-5-oxa-2,8-diazaspiro[3.5]nonane]
IC50 (human TLR7): 15.3 nM
IC50 (human TLR8): 1.3 nM
IC50 (TLR9): 159 nM

From patent US20230279001A1, “IMIDAZO[1,2-A]PYRIDINE COMPOUNDS FOR THE TREATMENT OF AUTOIMMUNE DISEASE” (Hoffmann-La Roche Inc., priority 2020, published 2023)
